According to patent publication US11254654B2, “Heterochromatin gene repression inhibitors” (The University of North Carolina at Chapel Hill, priority 2017, dated 2022):
Where a name gives a salt, the structure may show the parent alone.

Legend:
[1] = tested on: TetR-HP1; test: Orthogonal TetR-HP1 recruitment assay (BFP reporter); type: cell-based, mouse; settings: 5 μM, 48 hrs, with TetR-HP1 recruitment
From the text: The CiA:Oct4 recruitment system in mouse embryonic stem cells contains Gal4 and Zinc finger DNA binding arrays and a downstream nuclear eGFP gene in place of a single Oct4 allele as previously described (Hathaway et al., 2012). The CiA:Oct4 N118/N163 cell line containing viral integrations of N118 and N163 plasmids (N118-nLV EF-1α-Gal-FKBPx1-HA-PGK-Blast, N163-nLV EF-1α-HP1α (CS)-Frbx2(Frb+FrbWobb)-V5-PGK-Puro) was used for all experiments unless otherwise stated. The CiA:Oct4 N205 line containing the lentiviral construct N205 (N205-nLV EF-1α-ZFHD1-link-FKBP-HA <T2A> HP1αCS-Frbx2-V5-PGK-Blast) was used for shRNA experiments. CiA:Oct4 N118 was infected with the lentiviral construct N192 (N192-nLV Dual Promoter EF-1α-MCS-PGK-Puro HP1γ-(CS)-Frbx2(wobbmo)-V5) to yield the csHP1γ recruitment system CiA:Oct4 N118/N192. […]
TetR-HP1 cell lines were continuously grown with 1 μg/ml doxycycline to maintain an open chromatin state. […] Median BFP intensity was determined by FlowJo software analysis. […]

[2] = tested on: csHP1γ; test: csHP1γ inhibition assay, CiA:Oct4 N118/N192 cells; type: cell-based, mouse; settings: 5 μM, 48 hrs, + 6 nM rapamycin
Method: Day 0, CiA:Oct4 N118/N192 cells were grown and cultured in 96 well plate format with 10,000 cells seeded per well. Day 1, media was aspirated and replaced with fresh ES media containing 5 μM of top screen compounds and +/−6 nM rapamycin. Day 2, media was aspirated and replaced with fresh ES media containing 5 μM of top screen compounds and +/−6 nM rapamycin. Day 3, wells were aspirated and washed with PBS prior to sample preparation and analysis by flow cytometry.
After 48-hrs of 5 μM compound treatment with and without rapamycin, the % GFP (+) populations were determined by flow cytometry analysis.
Flow cytometry analysis was used to determine the % GFP (+) population. Data was converted to % inhibition for the +rapamycin samples. Experiments were performed in biological triplicate. (n≥3) (p≤0.05*, 0.01**).

[3] = biological target: T1, G9a (Homo sapiens, UniProt Q96KQ7); test: In vitro activity against G9a; type: biochemical; settings: data not shown
T1 sequence (Q96KQ7 1-1210): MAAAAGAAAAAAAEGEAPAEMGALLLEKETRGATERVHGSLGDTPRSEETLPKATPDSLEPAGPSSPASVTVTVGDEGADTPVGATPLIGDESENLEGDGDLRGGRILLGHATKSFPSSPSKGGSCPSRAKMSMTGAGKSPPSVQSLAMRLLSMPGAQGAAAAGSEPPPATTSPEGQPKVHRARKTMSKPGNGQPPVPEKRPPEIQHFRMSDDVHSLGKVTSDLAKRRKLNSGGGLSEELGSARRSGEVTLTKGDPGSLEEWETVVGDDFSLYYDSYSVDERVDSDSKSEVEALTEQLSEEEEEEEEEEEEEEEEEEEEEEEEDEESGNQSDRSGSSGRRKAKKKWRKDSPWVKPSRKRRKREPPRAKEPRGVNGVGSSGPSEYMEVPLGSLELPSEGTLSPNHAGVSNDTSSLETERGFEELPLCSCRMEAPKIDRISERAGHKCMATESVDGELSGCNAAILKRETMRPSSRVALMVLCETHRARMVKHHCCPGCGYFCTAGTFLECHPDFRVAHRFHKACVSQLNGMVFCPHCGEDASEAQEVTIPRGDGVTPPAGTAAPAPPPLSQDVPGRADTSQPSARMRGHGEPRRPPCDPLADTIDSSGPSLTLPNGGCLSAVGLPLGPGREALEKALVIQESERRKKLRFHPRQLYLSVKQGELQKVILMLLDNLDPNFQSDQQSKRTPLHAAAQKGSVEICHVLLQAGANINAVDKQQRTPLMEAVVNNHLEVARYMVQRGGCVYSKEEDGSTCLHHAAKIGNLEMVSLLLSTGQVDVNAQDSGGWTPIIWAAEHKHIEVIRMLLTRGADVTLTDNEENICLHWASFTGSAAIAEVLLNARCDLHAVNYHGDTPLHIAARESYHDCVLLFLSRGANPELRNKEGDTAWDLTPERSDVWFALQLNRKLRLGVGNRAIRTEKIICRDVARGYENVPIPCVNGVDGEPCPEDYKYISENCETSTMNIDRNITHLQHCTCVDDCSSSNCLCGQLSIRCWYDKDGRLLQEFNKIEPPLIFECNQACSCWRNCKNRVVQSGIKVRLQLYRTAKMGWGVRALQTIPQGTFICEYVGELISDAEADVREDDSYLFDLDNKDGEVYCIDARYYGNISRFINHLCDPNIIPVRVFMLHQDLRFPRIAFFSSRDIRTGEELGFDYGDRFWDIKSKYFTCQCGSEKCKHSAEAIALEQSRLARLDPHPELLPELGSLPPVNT

COc1cc2nc(N3CCCC3)nc(N[C@H]3CCCNC3)c2cc1OC [compound 1, (S)-6,7-Dimethoxy-N-(Piperidin-3-yl)-2-(Pyrrolidin-1-yl)Quinazolin-4-Amine Trifluoroacetic Acid Salt]
Inhibition of HP1-mediated heterochromatin formation (median BFP expression) [1]: significantly inhibit
Inhibition of csHP1γ-mediated repression of CiA:Oct4 locus [2]: most potent inhibitors of csHP1γ
Activity against G9a in vitro [3]: no detectable activity
